Source: patent US20190225650A1, “PEPTIDOMIMETIC MACROCYCLES AND USE THEREOF IN REGULATING HIF1ALPHA” (AILERON THERAPEUTICS, INC., priority 2013, published 2019)
Bridge positions count the residues as written; N and C are the ends. Square brackets hold non-standard residues; d marks the D form. Peptide text beside a SMILES is read from it. R8 = C=CCCCCCC[C@@](C)(N)C(=O)O; S5 = C=CCCC[C@](C)(N)C(=O)O; Nle = CCCC[C@H](N)C(=O)O

Columns and labels:
HRE-bla ME-180 cells [1] = experiment: Reporter gene assay (HRE-bla ME-180 HIF reporter, GeneBLAzer); format: cell-based, human; conditions: for EC50: 24 hour normoxia
Procedure, shortened: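 A FRET β-lactamase readout of HIF transcription was used. After compound treatment in 0.3% DMSO/media under normoxic conditions, 20 μl of 6× LiveBLAzer-FRET B/G (CCF4-AM) substrate was added. Plates sat 3 hr at room temperature in the dark and were read at 409 Ex/460Em and 409Ex/530Em on a Synergy 2. Inhibition was compared against DMSO vehicle controls, with chetomin as positive control.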

HRE-bla ME-180 cells [2] = experiment: Cell proliferation assay (viability, MTT, 1% FBS); format: cell-based, human
Procedure, shortened: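 Viable cell number was measured with the CellTiter 96 (MTT) kit after compounds were applied for a 16 h normoxic (21% O2) pretreatment, followed by further normoxic or hypoxic (1% O2) culture. Cells: 2×10^4 ME-180 per well, Opti-MEM + 1% FBS, 0.5% DMSO vehicle.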

[3] = target: T1, flag-tagged HIF1α (AA 786-826) / His6-tagged p300 (AA 323-423) complex (Homo sapiens, UniProt Q09472); experiment: HIF1α p300 displacement assay (TR FRET, +CHAPS); format: binding; conditions: read-out: IC50 (nM) (HIF1α_p300 Displacement + CHAPS)
T1 construct: His6-tagged p300 (AA 323-423); made in house; host or cells: E. coli (pETDuet vector)
T1 sequence (Q09472 323-423, one chain of several): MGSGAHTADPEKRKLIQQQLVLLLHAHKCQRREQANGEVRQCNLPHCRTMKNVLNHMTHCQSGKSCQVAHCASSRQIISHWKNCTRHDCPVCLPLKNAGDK
Procedure, shortened: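 In this TR-FRET displacement format, peptides compete HIF1α C-terminal transactivation domain off p300-CH. They were preincubated 1 h at room temperature with 300 nM complex in HEPES pH 7.4/NaCl buffer with 7.5 mM CHAPS and 1 mM DTT. Anti-His-D2 (4 nM) and anti-Flag-K (0.5 μM) followed for 2 h, and a one-site fit of the fluorescence ratio gave IC50.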

SMILES | EC50 (HRE-bla ME-180 cells [1]) [µM] | IC50 [3] [nM] | 18 h Avg % max inhibition at top conc (HIF Rptr-24 hrs normoxia) (μM) (HRE-bla ME-180 cells [1]) | Viability 1% FBS AVG (MTT V3-24 hr Normoxia) (μM) (HRE-bla ME-180 cells [2])
CCCC[C@H](NC(=O)[C@H](CCC(=O)O)NC(=O)[C@]1(C)CCCC=CCCCCCC[C@@](C)(NC(=O)[C@H](CCC(=O)O)NC(=O)[C@H](CC(=O)O)NC(=O)[C@@H](NC(=O)[C@H](CC(N)=O)NC(=O)[C@@H](NC(=O)[C@H](CCC(N)=O)NC(=O)[C@]2(C)CCCC=CCCC[C@](C)(NC(=O)[C@H](CC(C)C)NC(=O)[C@H](C)NC(=O)[C@H](CCC(=O)O)NC(=O)CNC(=O)[C@H](CCC(N)=O)NC(=O)[C@H](CC(C)C)NC(=O)[C@H](CC(C)C)NC(C)=O)C(=O)N[C@@H](CCCNC(=N)N)C(=O)N[C@@H](C)C(=O)N[C@@H](CC(C)C)C(=O)N2)C(C)C)[C@@H](C)CC)C(=O)N[C@@H](C(C)C)C(=O)N[C@@H](CC(C)C)C(=O)N[C@@H](CCCC)C(=O)N[C@@H](CO)C(=O)N[C@@H](CC(C)C)C(=O)N[C@@H](C(C)C)C(=O)N1)C(N)=O [SP-361] (Ac-LLQGEAL[S5]RAL[S5]QVNIDE[R8]VL[Nle]SLV[S5]E[Nle]-NH2; staple 8-12, 19-26) | > 30 | > 700 | ++ (≤10 but <25: ++) | ++++ (≥30: ++++)
CCCC[C@H](NC(=O)[C@H](CCC(=O)O)NC(=O)[C@]1(C)CCCC=CCCCCCC[C@@](C)(NC(=O)[C@H](C)NC(=O)[C@H](CC(=O)O)NC(=O)[C@@H](NC(=O)[C@H](CC(N)=O)NC(=O)[C@@H](NC(=O)[C@H](CCC(N)=O)NC(=O)[C@]2(C)CCCC=CCCC[C@](C)(NC(=O)[C@H](CC(C)C)NC(=O)[C@H](CCC(=O)O)NC(=O)[C@H](CCC(=O)O)NC(=O)CNC(=O)[C@H](CCC(N)=O)NC(=O)[C@H](CC(C)C)NC(=O)[C@H](CC(C)C)NC(C)=O)C(=O)N[C@@H](CCCNC(=N)N)C(=O)N[C@@H](C)C(=O)N[C@@H](CC(C)C)C(=O)N2)C(C)C)[C@@H](C)CC)C(=O)N[C@@H](C(C)C)C(=O)N[C@@H](CC(C)C)C(=O)N[C@@H](CCCC)C(=O)N[C@@H](CO)C(=O)N[C@@H](CC(C)C)C(=O)N[C@@H](C(C)C)C(=O)N1)C(N)=O [SP-362] (Ac-LLQGEEL[S5]RAL[S5]QVNIDA[R8]VL[Nle]SLV[S5]E[Nle]-NH2; staple 8-12, 19-26) | 5 to 15 | 400 to 700 | ++++ (≥50: ++++) | ++++ (≥30: ++++)
CCCC[C@H](NC(=O)[C@H](C)NC(=O)[C@]1(C)CCCC=CCCCCCC[C@@](C)(NC(=O)[C@H](CCC(=O)O)NC(=O)[C@H](CC(=O)O)NC(=O)[C@@H](NC(=O)[C@H](CC(N)=O)NC(=O)[C@@H](NC(=O)[C@H](CCC(N)=O)NC(=O)[C@]2(C)CCCC=CCCC[C@](C)(NC(=O)[C@H](CC(C)C)NC(=O)[C@H](CCC(=O)O)NC(=O)[C@H](CCC(=O)O)NC(=O)CNC(=O)[C@H](CCC(N)=O)NC(=O)[C@H](CC(C)C)NC(=O)[C@H](CC(C)C)NC(C)=O)C(=O)N[C@@H](CCCNC(=N)N)C(=O)N[C@@H](C)C(=O)N[C@@H](CC(C)C)C(=O)N2)C(C)C)[C@@H](C)CC)C(=O)N[C@@H](C(C)C)C(=O)N[C@@H](CC(C)C)C(=O)N[C@@H](CCCC)C(=O)N[C@@H](CO)C(=O)N[C@@H](CC(C)C)C(=O)N[C@@H](C(C)C)C(=O)N1)C(N)=O [SP-363] (Ac-LLQGEEL[S5]RAL[S5]QVNIDE[R8]VL[Nle]SLV[S5]A[Nle]-NH2; staple 8-12, 19-26) | > 30 | > 700 | ++ (≤10 but <25: ++) | ++++ (≥30: ++++)
CCCC[C@H](NC(=O)[C@H](CCC(=O)O)NC(=O)[C@]1(C)CCCC=CCCCCCC[C@@](C)(NC(=O)[C@H](CCC(=O)O)NC(=O)[C@H](C)NC(=O)[C@@H](NC(=O)[C@H](CC(N)=O)NC(=O)[C@@H](NC(=O)[C@H](CCC(N)=O)NC(=O)[C@]2(C)CCCC=CCCC[C@](C)(NC(=O)[C@H](CC(C)C)NC(=O)[C@H](CCC(=O)O)NC(=O)[C@H](CCC(=O)O)NC(=O)CNC(=O)[C@H](CCC(N)=O)NC(=O)[C@H](CC(C)C)NC(=O)[C@H](CC(C)C)NC(C)=O)C(=O)N[C@@H](CCCNC(=N)N)C(=O)N[C@@H](C)C(=O)N[C@@H](CC(C)C)C(=O)N2)C(C)C)[C@@H](C)CC)C(=O)N[C@@H](C(C)C)C(=O)N[C@@H](CC(C)C)C(=O)N[C@@H](CCCC)C(=O)N[C@@H](CO)C(=O)N[C@@H](CC(C)C)C(=O)N[C@@H](C(C)C)C(=O)N1)C(N)=O [SP-365] (Ac-LLQGEEL[S5]RAL[S5]QVNIAE[R8]VL[Nle]SLV[S5]E[Nle]-NH2; staple 8-12, 19-26) | > 30 | > 700 | +++ (≤25 but <50: +++) | ++++ (≥30: ++++)
CCCC[C@H](NC(=O)[C@H](CCC(=O)O)NC(=O)[C@]1(C)CCCC=CCCCCCC[C@@](C)(NC(=O)[C@H](CCC(=O)O)NC(=O)[C@H](CC(=O)O)NC(=O)[C@@H](NC(=O)[C@H](CC(N)=O)NC(=O)[C@@H](NC(=O)[C@H](CCC(N)=O)NC(=O)[C@]2(C)CCCC=CCCC[C@](C)(NC(=O)[C@H](CC(C)C)NC(=O)[C@H](CCC(=O)O)NC(=O)[C@H](CCC(=O)O)NC(C)=O)C(=O)N[C@@H](CCCNC(=N)N)C(=O)N[C@@H](C)C(=O)N[C@@H](CC(C)C)C(=O)N2)C(C)C)[C@@H](C)CC)C(=O)N[C@@H](C(C)C)C(=O)N[C@@H](CC(C)C)C(=O)N[C@@H](CCCC)C(=O)N[C@@H](CO)C(=O)N[C@@H](CC(C)C)C(=O)N[C@@H](C(C)C)C(=O)N1)C(N)=O [SP-366] (Ac-EEL[S5]RAL[S5]QVNIDE[R8]VL[Nle]SLV[S5]E[Nle]-NH2; staple 4-8, 15-22) | ≤ 5 | > 700 | ++++ (≥50: ++++) | ++++ (≥30: ++++)

The next lines start with results.

EC50 (HRE-bla ME-180 cells [1]) [µM] | IC50 [3] [nM] | SMILES | 18 h Avg % max inhibition at top conc (HIF Rptr-24 hrs normoxia) (μM) (HRE-bla ME-180 cells [1]) | Viability 1% FBS AVG (MTT V3-24 hr Normoxia) (μM) (HRE-bla ME-180 cells [2])
≤ 5 | 400 to 700 | CCCC[C@H](NC(=O)[C@H](CCC(=O)O)NC(=O)[C@]1(C)CCCC=CCCCCCC[C@@](C)(NC(=O)[C@H](CCC(=O)O)NC(=O)[C@H](CC(=O)O)NC(=O)[C@@H](NC(=O)[C@H](CC(N)=O)NC(=O)[C@@H](NC(=O)[C@H](CCC(N)=O)NC(=O)[C@]2(C)CCCC=CCCC[C@](C)(NC(=O)[C@H](CC(C)C)NC(=O)[C@H](CCC(=O)O)NC(=O)[C@H](CCC(=O)O)NC(=O)[C@H](C)NC(=O)[C@H](CCC(N)=O)NC(=O)[C@H](CC(C)C)NC(=O)[C@H](CC(C)C)NC(C)=O)C(=O)N[C@@H](CCCNC(=N)N)C(=O)N[C@@H](C)C(=O)N[C@@H](CC(C)C)C(=O)N2)C(C)C)[C@@H](C)CC)C(=O)N[C@@H](C(C)C)C(=O)N[C@@H](CC(C)C)C(=O)N[C@@H](CCCC)C(=O)N[C@@H](CO)C(=O)N[C@@H](CC(C)C)C(=O)N[C@@H](C(C)C)C(=O)N1)C(N)=O [SP-367] (Ac-LLQAEEL[S5]RAL[S5]QVNIDE[R8]VL[Nle]SLV[S5]E[Nle]-NH2; staple 8-12, 19-26) | ++++ (≥50: ++++) | ++++ (≥30: ++++)
> 30 | 400 to 700 | CCCC[C@H](NC(=O)[C@H](CC(C)C)NC(=O)[C@@H](NC(=O)[C@H](CCC(=O)O)NC(=O)[C@H](CCC(=O)O)NC(=O)[C@H](CC(=O)O)NC(=O)[C@@H](NC(=O)[C@H](CC(N)=O)NC(=O)[C@@H](NC(=O)[C@]1(C)CCCC=CCCCCCC[C@@](C)(NC(=O)[C@H](CCC(=O)O)NC(=O)CNC(=O)[C@H](CCC(N)=O)NC(=O)[C@H](CC(C)C)NC(=O)[C@H](CC(C)C)NC(C)=O)C(=O)N[C@@H](CC(C)C)C(=O)N[C@@H](CC(C)C)C(=O)N[C@@H](CCCNC(=N)N)C(=O)N[C@@H](C)C(=O)N[C@@H](CC(C)C)C(=O)N[C@@H](CC(=O)O)C(=O)N1)C(C)C)[C@@H](C)CC)C(C)C)C(=O)N[C@@]1(C)CCCC=CCCC[C@@](C)(C(=O)N[C@@H](CCCC)C(=O)N[C@@H](C)C(=O)N[C@@H](CC(C)C)C(N)=O)NC(=O)[C@H]([C@@H](C)CC)NC(=O)[C@H](C(C)C)NC(=O)[C@H](CC(C)C)NC1=O [SP-372] (Ac-LLQGE[R8]LLRALD[S5]VNIDEEVL[Nle][S5]LVI[S5][Nle]AL-NH2; staple 6-13, 23-27) | ++++ (≥50: ++++) | ++++ (≥30: ++++)
> 30 | 200 to 400 | CCCC[C@H](NC(=O)[C@H](CCC(=O)O)NC(=O)[C@]1(C)CCCC=CCCCCCC[C@@](C)(NC(=O)[C@H](CCC(=O)O)NC(=O)[C@H](CC(=O)O)NC(=O)[C@@H](NC(=O)[C@H](CC(N)=O)NC(=O)[C@@H](NC(=O)[C@]2(C)CCCC=CCCCCCC[C@@](C)(NC(=O)[C@H](CCC(=O)O)NC(=O)CNC(=O)[C@H](CCC(N)=O)NC(=O)[C@H](CC(C)C)NC(=O)[C@H](CC(C)C)NC(C)=O)C(=O)N[C@@H](CC(C)C)C(=O)N[C@@H](CC(C)C)C(=O)N[C@@H](CCCNC(=N)N)C(=O)N[C@@H](C)C(=O)N[C@@H](CC(C)C)C(=O)N[C@@H](CC(=O)O)C(=O)N2)C(C)C)[C@@H](C)CC)C(=O)N[C@@H](C(C)C)C(=O)N[C@@H](CC(C)C)C(=O)N[C@@H](CCCC)C(=O)N[C@@H](CO)C(=O)N[C@@H](CC(C)C)C(=O)N[C@@H](C(C)C)C(=O)N1)C(=O)N[C@@H](C)C(=O)N[C@@H](CC(C)C)C(N)=O [SP-373] (Ac-LLQGE[R8]LLRALD[S5]VNIDE[R8]VL[Nle]SLV[S5]E[Nle]AL-NH2; staple 6-13, 19-26) | +++ (≤25 but <50: +++) | ++++ (≥30: ++++)
